According to US20220089598A1, “INHIBITORS OF HUMAN IMMUNODEFICIENCY VIRUS REPLICATION” (VIIV HEALTHCARE UK (No. 5) LIMITED, priority 2018, published 2022):

Assays:
[1] = Compound cytotoxicity, XTT-based colorimetric assay; assay type: cell-based; settings: human; uninfected MT2 cells, day 4, XTT assay
Protocol: Compound cytotoxicity and the corresponding CC50 values were determined using the same protocol as described in the antiviral assay except that uninfected cells were used. Cytotoxicity was assessed on day 4 in uninfected MT2 cells by using a XTT (2,3-bis[2-Methoxy-4-nitro-5-sulfophenyl]-2H-tetrazolium-5-carboxyanilide inner salt)-based colorimetric assay (Sigma-Aldrich, St Louis, Mo.).

[2] = system: recombinant NL4-3 virus (Renilla luciferase) in MT-2 cells; experiment: HIV cell culture assay (antiviral activity, luciferase readout); assay type: cell-based; settings: Renilla, NL43
Protocol: HIV cell culture assay—MT-2 cells, 293T cells and the proviral DNA clone of NL4-3 virus were obtained from the NIH AIDS Research and Reference Reagent Program. MT-2 cells were propagated in RPMI 1640 media supplemented with 10% heat inactivated fetal bovine serum (FBS), 100 μg/ml penicillin G and up to 100 units/mL streptomycin. The 293T cells were propagated in DMEM media supplemented with 10% heat inactivated FBS, 100 μg/mL penicillin G and 100 μg/mL streptomycin. A recombinant NL4-3 proviral clone, in which a section of the nef gene was replaced with the Renilla luciferase gene, was used to make the reference virus used in these studies. The recombinant virus was prepared through transfection of the recombinant NL4-3 proviral clone into 293T cells using Transit-293 Transfection Reagent from Mirus Bio LLC (Madison, Wis.). Supernatent was harvested after 2-3 days and the amount of virus present was titered in MT-2 cells using luciferase enzyme activity as a marker by measuring luciferase enzyme activity. Luciferase was quantitated using the EnduRen Live Cell Substrate from Promega (Madison, Wis.). Antiviral activities of compounds toward the recombinant virus were quantified by measuring luciferase activity in MT-2 cells infected for 4-5 days with the recombinant virus in the presence of serial dilutions of the compound.
The 50% effective concentration (EC50) was calculated by using the exponential form of the median effect equation where (Fa)=1/[1+(ED50/drug conc.)m] (Johnson V A, Byington R T. Infectivity Assay. In Techniques in HIV Research. ed. Aldovini A, Walker B D. 71-76. New York: Stockton Press. 1990).

With `CS(=O)(=O)Nc1nn(CC(F)(F)F)c2c(-n3c([C@H](Cc4cc(F)cc(F)c4)NC(=O)Cn4ccc(C5CC5)n4)nc4nc(-c5ccccc5F)ccc4c3=O)ccc(Cl)c12` (atropisomer, axis not shown; (P)) [Example 36, (S)—N-(1-((3P)-3-(4-chloro-3-(methylsulfonamido)-1-(2,2,2-trifluoroethyl)-1H-indazol-7-yl)-7-(2-fluorophenyl)-4-oxo-3,4-dihydropyrido[2,3-d]pyrimidin-2-yl)-2-(3,5-difluorophenyl)ethyl)-2-(3-cyclopropyl-1H-pyrazol-1-yl)acetamide] as the compound, how does the CC50 at 4 day [1] read?
The CC50 at 4 day was > 500000 pM.

What about the EC50 [2] of the same compound?
The EC50 was 160 pM.

With `Cn1nc(NS(C)(=O)=O)c2c(Cl)ccc(-n3c([C@H](Cc4cc(F)cc(F)c4)NC(=O)Cn4nc(C(F)F)c5c4C(F)(F)[C@@H]4C[C@H]54)nc4nc(-c5cccc(S(C)(=O)=O)c5)ccc4c3=O)c21` (atropisomer, axis not shown; (P)) [Example 23, N—((S)-1-((3P)-3-(4-chloro-1-methyl-3-(methylsulfonamido)-1H-indazol-7-yl)-7-(3-(methylsulfonyl)phenyl)-4-oxo-3,4-dihydropyrido[2,3-d]pyrimidin-2-yl)-2-(3,5-difluorophenyl)ethyl)-2-((3bS,4aR)-3-(difluoromethyl)-5,5-difluoro-3b,4,4a,5-tetrahydro-1H-cyclopropa[3,4]cyclopenta[1,2-c]pyrazol-1-yl)acetamide] as the compound, how does the CC50 at 4 day [1] read?
Its CC50 at 4 day is > 100000 pM.

What about the EC50 [2] of the same compound?
Its EC50 is 65 pM.

With `Cn1nc(NS(C)(=O)=O)c2c(Cl)ccc(-n3c([C@H](Cc4cc(F)cc(F)c4)NC(=O)Cn4nc(C(F)F)c5c4C(F)(F)[C@@H]4C[C@H]54)nc4nc(-c5cc(F)c(F)c(F)c5)ccc4c3=O)c21` (atropisomer, axis not shown; (P)) [Example 12, N—((S)-1-((3P)-3-(4-chloro-1-methyl-3-(methylsulfonamido)-1H-indazol-7-yl)-4-oxo-7-(3,4,5-trifluorophenyl)-3,4-dihydropyrido[2,3-d]pyrimidin-2-yl)-2-(3,5-difluorophenyl)ethyl)-2-((3bS,4aR)-3-(difluoromethyl)-5,5-difluoro-3b,4,4a,5-tetrahydro-1H-cyclopropa[3,4]cyclopenta[1,2-c]pyrazol-1-yl)acetamide] as the compound, how does the CC50 at 4 day [1] read?
The CC50 at 4 day was > 100000 pM.

And the EC50 [2]?
Its EC50 is 210 pM.

Which CC50 at 4 day [1] does the source give for `Cn1nc(NS(C)(=O)=O)c2c(Cl)ccc(-n3c([C@H](Cc4cc(F)cc(F)c4)NC(=O)Cn4nc(C(F)F)c5c4C(F)(F)[C@@H]4C[C@H]54)nc4nc(-c5ccc(F)cc5CO)ccc4c3=O)c21` (atropisomer, axis not shown; (P)) [Example 16, N—((S)-1-((3P)-3-(4-chloro-1-methyl-3-(methylsulfonamido)-1H-indazol-7-yl)-7-(4-fluoro-2-(hydroxymethyl)phenyl)-4-oxo-3,4-dihydropyrido[2,3-d]pyrimidin-2-yl)-2-(3,5-difluorophenyl)ethyl)-2-((3bS,4aR)-3-(difluoromethyl)-5,5-difluoro-3b,4,4a,5-tetrahydro-1H-cyclopropa[3,4]cyclopenta[1,2-c]pyrazol-1-yl)acetamide] here?
The CC50 at 4 day was > 500000 pM.

And the EC50 [2]?
Its EC50 is 56 pM.

What does the source list for `Cn1nc(NS(C)(=O)=O)c2c(Cl)ccc(-n3c([C@H](Cc4cc(F)cc(F)c4)NC(=O)Cn4nc(C(F)F)c5c4C(F)(F)[C@@H]4C[C@H]54)nc4cc(-c5ccccc5F)cnc4c3=O)c21` (atropisomer, axis not shown; (P)) [Example 38, N—((S)-1-((3P)-3-(4-chloro-1-methyl-3-(methylsulfonamido)-1H-indazol-7-yl)-7-(2-fluorophenyl)-4-oxo-3,4-dihydropyrido[3,2-d]pyrimidin-2-yl)-2-(3,5-difluorophenyl)ethyl)-2-((3bS,4aR)-3-(difluoromethyl)-5,5-difluoro-3b,4,4a,5-tetrahydro-1H-cyclopropa[3,4]cyclopenta[1,2-c]pyrazol-1-yl)acetamide]?
CC50 at 4 day [1]: > 500000 pM; EC50 [2]: 1900 pM

With `Cn1nc(NS(C)(=O)=O)c2c(Cl)ccc(-n3c([C@H](Cc4cc(F)cc(F)c4)NC(=O)Cn4nc(C(F)F)c5c4C(F)(F)[C@@H]4C[C@H]54)nc4nc(-c5cc(F)ccc5F)ccc4c3=O)c21` (atropisomer, axis not shown; (P)) [Example 9, N—((S)-1-((3P)-3-(4-chloro-1-methyl-3-(methylsulfonamido)-1H-indazol-7-yl)-7-(2,5-difluorophenyl)-4-oxo-3,4-dihydropyrido[2,3-d]pyrimidin-2-yl)-2-(3,5-difluorophenyl)ethyl)-2-((3bS,4aR)-3-(difluoromethyl)-5,5-difluoro-3b,4,4a,5-tetrahydro-1H-cyclopropa[3,4]cyclopenta[1,2-c]pyrazol-1-yl)acetamide] as the compound, how does the CC50 at 4 day [1] read?
The CC50 at 4 day was > 500000 pM.

What about the EC50 [2] of the same compound?
The EC50 was 120 pM.

Which CC50 at 4 day [1] does the source give for `O=C(Cn1nc(C(F)(F)F)c2c1C(F)(F)[C@@H]1C[C@H]21)N[C@@H](Cc1cc(F)cc(F)c1)c1nc2nc(-c3ccccc3F)ccc2c(=O)n1-c1ccc(Cl)c2c(NS(=O)(=O)C3CC3)nn(CC(F)F)c12` (atropisomer, axis not shown; (P)) [Example 7, N—((S)-1-((3P)-3-(4-chloro-3-(cyclopropanesulfonamido)-1-(2,2-difluoroethyl)-1H-indazol-7-yl)-7-(2-fluorophenyl)-4-oxo-3,4-dihydropyrido[2,3-d]pyrimidin-2-yl)-2-(3,5-difluorophenyl)ethyl)-2-((3bS,4aR)-5,5-difluoro-3-(trifluoromethyl)-3b,4,4a,5-tetrahydro-1H-cyclopropa[3,4]cyclopenta[1,2-c]pyrazol-1-yl)acetamide] here?
Its CC50 at 4 day is > 100000 pM.

What about the EC50 [2] of the same compound?
The EC50 was 56 pM.

What does the source list for `CS(=O)(=O)Nc1nn(CC(F)(F)F)c2c(-n3c([C@H](Cc4cc(F)cc(F)c4)NC(=O)Cn4nc(C(F)(F)F)c5c4C(F)(F)[C@@H]4C[C@H]54)nc4nc(-c5ccccc5F)ccc4c3=O)ccc(Cl)c12` (atropisomer, axis not shown; (P)) [Example 11, N—((S)-1-((3P)-3-(4-chloro-3-(methylsulfonamido)-1-(2,2,2-trifluoroethyl)-1H-indazol-7-yl)-7-(2-fluorophenyl)-4-oxo-3,4-dihydropyrido[2,3-d]pyrimidin-2-yl)-2-(3,5-difluorophenyl)ethyl)-2-((3bS,4aR)-5,5-difluoro-3-(trifluoromethyl)-3b,4,4a,5-tetrahydro-1H-cyclopropa[3,4]cyclopenta[1,2-c]pyrazol-1-yl)acetamide]?
CC50 at 4 day [1]: > 100000 pM; EC50 [2]: 150 pM

With `Cn1nc(NS(C)(=O)=O)c2c(Cl)ccc(-n3c([C@H](Cc4cc(F)cc(F)c4)NC(=O)Cn4nc(C(F)(F)F)c5c4C(F)(F)[C@@H]4C[C@H]54)nc4nc(-c5ccc(F)cc5F)ccc4c3=O)c21` (atropisomer, axis not shown; (P)) [Example 24, N—((S)-1-((3P)-3-(4-chloro-1-methyl-3-(methylsulfonamido)-1H-indazol-7-yl)-7-(2,4-difluorophenyl)-4-oxo-3,4-dihydropyrido[2,3-d]pyrimidin-2-yl)-2-(3,5-difluorophenyl)ethyl)-2-((3bS,4aR)-5,5-difluoro-3-(trifluoromethyl)-3b,4,4a,5-tetrahydro-1H-cyclopropa[3,4]cyclopenta[1,2-c]pyrazol-1-yl)acetamide] as the compound, how does the CC50 at 4 day [1] read?
The CC50 at 4 day was > 500000 pM.

And the EC50 [2]?
Its EC50 is 67 pM.

Which CC50 at 4 day [1] does the source give for `COc1c(F)ccc(-c2ccc3c(=O)n(-c4ccc(Cl)c5c(NS(C)(=O)=O)nn(C)c45)c([C@H](Cc4cc(F)cc(F)c4)NC(=O)Cn4nc(C(F)F)c5c4C(F)(F)[C@@H]4C[C@H]54)nc3n2)c1F` (atropisomer, axis not shown; (P)) [Example 26, N—((S)-1-((3P)-3-(4-chloro-1-methyl-3-(methylsulfonamido)-1H-indazol-7-yl)-7-(2,4-difluoro-3-methoxyphenyl)-4-oxo-3,4-dihydropyrido[2,3-d]pyrimidin-2-yl)-2-(3,5-difluorophenyl)ethyl)-2-((3bS,4aR)-3-(difluoromethyl)-5,5-difluoro-3b,4,4a,5-tetrahydro-1H-cyclopropa[3,4]cyclopenta[1,2-c]pyrazol-1-yl)acetamide] here?
Its CC50 at 4 day is > 100000 pM.

And the EC50 [2]?
Its EC50 is 62 pM.

For `Cn1nc(NS(C)(=O)=O)c2c(Cl)ccc(-n3c([C@H](Cc4cc(F)cc(F)c4)NC(=O)Cn4nc(C(F)F)c5c4C(F)(F)[C@@H]4C[C@H]54)nc4nc(-c5ccc(C(F)(F)F)cc5)ccc4c3=O)c21` (atropisomer, axis not shown; (P)) [Example 14, N—((S)-1-((3P)-3-(4-chloro-1-methyl-3-(methylsulfonamido)-1H-indazol-7-yl)-4-oxo-7-(4-(trifluoromethyl)phenyl)-3,4-dihydropyrido[2,3-d]pyrimidin-2-yl)-2-(3,5-difluorophenyl)ethyl)-2-((3bS,4aR)-3-(difluoromethyl)-5,5-difluoro-3b,4,4a,5-tetrahydro-1H-cyclopropa[3,4]cyclopenta[1,2-c]pyrazol-1-yl)acetamide], which CC50 at 4 day [1] is on record?
The CC50 at 4 day was > 100000 pM.

And the EC50 [2]?
Its EC50 is 84 pM.
